Target: T1, Cbl-b (Homo sapiens, UniProt Q13191)
T1 construct: Cbl-b-HiBit KI Jurkat Cells were purchased from Promega; host or cells: Cbl-b-HiBiT knock-in Jurkat cells
Test: Cbl-b Degradation Method B (Nano-Glo HiBiT lytic detection)
Type: cell-based
Details: Cbl-b-HiBit KI Jurkat Cells, incubated at least 6-24 hours; for DC50: half maximal degradation, read-out: Cbl-b Degredation Method B IC50; for Dmax: maximum degradation observed, read-out: Cbl-b Degredation Method B Dmax (%)
Protocol: Cbl-b Degradation Method B [table] Cbl-b-HiBit KI Jurkat Cells were purchased from Promega, and cell media consisted of RPMI 1640 with 10% […] and 1% pen/strep. The cells were counted, measured for viability, and 35 μL of the cell solution was seeded into 384 well flat bottom plates at a ratio of 20,000 cells per 35 μL. After which, the plates were incubated for ˜24 hours at 37° C. and 5% CO2. Compounds were ordered from Evotec in a 384 well plate at a 1 mM top concentration in DMSO and serially diluted 1:3 in DMSO for an 11-point dose response. Using the Bravo instrument, 1 uL of compound solution or DMSO was transferred to 125 uL of media. Each well was treated with 5 μL of compound plus media mixture or DMO and subsequently incubated for at least 6-24 hours at 37° C. and 5% CO2. After incubation, 30 μL of either NanoGlo media was added to each cell, and the plates read on the Synergy Neo2 machine. The concentration of an exemplary compound that leads to half maximal degradation (DC50) as well as the maximum degradation observed (Dmax, conventionally expressed as a percentage of control) is shown below in Table 2.

T1 sequence (Q13191 whole entry): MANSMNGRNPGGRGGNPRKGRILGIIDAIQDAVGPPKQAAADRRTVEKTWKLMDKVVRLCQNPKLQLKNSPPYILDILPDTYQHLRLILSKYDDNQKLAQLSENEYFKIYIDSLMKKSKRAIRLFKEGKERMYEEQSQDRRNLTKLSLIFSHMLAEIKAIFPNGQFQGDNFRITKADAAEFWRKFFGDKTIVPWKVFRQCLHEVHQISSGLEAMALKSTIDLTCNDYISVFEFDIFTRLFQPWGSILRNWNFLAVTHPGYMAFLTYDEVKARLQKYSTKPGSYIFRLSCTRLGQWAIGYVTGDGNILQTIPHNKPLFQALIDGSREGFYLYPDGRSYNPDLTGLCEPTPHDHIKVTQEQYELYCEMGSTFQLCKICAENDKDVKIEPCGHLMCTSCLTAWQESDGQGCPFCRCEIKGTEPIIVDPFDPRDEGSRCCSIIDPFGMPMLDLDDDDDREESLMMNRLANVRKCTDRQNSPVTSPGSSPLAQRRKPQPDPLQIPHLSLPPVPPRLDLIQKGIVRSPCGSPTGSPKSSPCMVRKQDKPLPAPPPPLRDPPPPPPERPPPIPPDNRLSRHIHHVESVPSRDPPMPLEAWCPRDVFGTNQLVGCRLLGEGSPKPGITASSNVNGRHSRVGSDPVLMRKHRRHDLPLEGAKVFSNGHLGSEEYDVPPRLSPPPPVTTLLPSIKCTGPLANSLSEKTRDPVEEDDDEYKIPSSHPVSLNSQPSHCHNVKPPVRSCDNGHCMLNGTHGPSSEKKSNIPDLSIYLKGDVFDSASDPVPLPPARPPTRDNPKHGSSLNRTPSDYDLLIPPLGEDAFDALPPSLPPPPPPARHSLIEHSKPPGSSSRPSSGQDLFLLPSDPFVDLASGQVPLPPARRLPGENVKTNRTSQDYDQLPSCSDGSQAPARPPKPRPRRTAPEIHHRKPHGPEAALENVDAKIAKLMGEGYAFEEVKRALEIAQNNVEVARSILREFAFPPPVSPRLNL

`C[C@@H]1CN(CC2CCC(OC3CCN(c4ccc5c(n4)[C@@H](C)N(C4CCC(=O)NC4=O)C5=O)CC3)CC2)CCN1Cc1cc2c(c(C(F)(F)F)c1)CN(c1cccc([C@]3(Cc4nncn4C)C[C@H](C#N)C3)c1)C2=O` (single isomer, unassigned) [Example 239, (1rs&,3rs&)-3-[3-(6-{[(2R)-2-methyl-4-{[(1rs,4rs)-4-({1-[(7R*)-6-(2,6-dioxopiperidin-3-yl)-7-methyl-5-oxo-5H,6H,7H-pyrrolo[3,4-b]pyridin-2-yl]piperidin-4-yl}oxy)cyclohexyl]methyl}piperazin-1-yl]methyl}-1-oxo-4-(trifluoromethyl)-2,3-dihydro-1H-isoindol-2-yl)phenyl]-3-[(4-methyl-4H-1,2,4-triazol-3-yl)methyl]cyclobutane-1-carbonitrile] showed a DC50 of under 5 nM and a Dmax of over 70%.

For `C[C@@H]1CN(CC2CCC(OC3CCN(c4ccc5c(n4)[C@@H](C)N(C4CCC(=O)NC4=O)C5=O)CC3)CC2)CCN1Cc1cc2c(c(C(F)(F)F)c1)CN(c1cccc([C@]3(Cc4nncn4C)C[C@H](C#N)C3)c1)C2=O` (single isomer, unassigned) [Example 240, (1rs&,3rs&)-3-[3-(6-{[(2R)-2-methyl-4-{[(1rs,4rs)-4-({1-[(7R*)-6-(2,6-dioxopiperidin-3-yl)-7-methyl-5-oxo-5H,6H,7H-pyrrolo[3,4-b]pyridin-2-yl]piperidin-4-yl}oxy)cyclohexyl]methyl}piperazin-1-yl]methyl}-1-oxo-4-(trifluoromethyl)-2,3-dihydro-1H-isoindol-2-yl)phenyl]-3-[(4-methyl-4H-1,2,4-triazol-3-yl)methyl]cyclobutane-1-carbonitrile], the DC50 was over 500 nM.

With `C[C@@H]1c2nc(N3CCC(O[C@H]4CC[C@H](CN5CCN(Cc6cc7c(c(C(F)(F)F)c6)CN(c6cccc(C8(Cc9nncn9C)CC(C#N)C8)c6)C7=O)[C@@H](C)C5)CC4)CC3)ccc2C(=O)N1C1CCC(=O)NC1=O` (single isomer, unassigned) [Example 247, (1r***,3r***)-3-[3-(6-{[(2S)-2-methyl-4-{[(1r**,4r**)-4-({1-[(7R*)-6-(2,6-dioxopiperidin-3-yl)-7-methyl-5-oxo-5H,6H,7H-pyrrolo[3,4-b]pyridin-2-yl]piperidin-4-yl}oxy)cyclohexyl]methyl}piperazin-1-yl]methyl}-1-oxo-4-(trifluoromethyl)-2,3-dihydro-1H-isoindol-2-yl)phenyl]-3-[(4-methyl-4H-1,2,4-triazol-3-yl)methyl]cyclobutane-1-carbonitrile] the DC50 was under 5 nM and the Dmax was over 70%.

Compound `C[C@@H]1c2nc(N3CCC(O[C@H]4CC[C@H](CN5CCN(Cc6cc7c(c(C(F)(F)F)c6)CN(c6cccc(C8(Cc9nncn9C)CC(C#N)C8)c6)C7=O)[C@@H](C)C5)CC4)CC3)ccc2C(=O)N1C1CCC(=O)NC1=O` (single isomer, unassigned) [Example 248, (1r***,3r***)-3-[3-(6-{[(2S)-2-methyl-4-{[(1r**,4r**)-4-({1-[(7R*)-6-(2,6-dioxopiperidin-3-yl)-7-methyl-5-oxo-5H,6H,7H-pyrrolo[3,4-b]pyridin-2-yl]piperidin-4-yl}oxy)cyclohexyl]methyl}piperazin-1-yl]methyl}-1-oxo-4-(trifluoromethyl)-2,3-dihydro-1H-isoindol-2-yl)phenyl]-3-[(4-methyl-4H-1,2,4-triazol-3-yl)methyl]cyclobutane-1-carbonitrile] has a DC50 of over 500 nM.

`Cn1cnnc1CC1(c2cccc(N3Cc4c(cc(CN5CCC[C@H](CN6CC[C@@H](OC7CCN(c8ccc9c(c8F)CN(C8CCC(=O)NC8=O)C9=O)CC7)CC6(C)C)C5)cc4C(F)(F)F)C3=O)c2)CC(C#N)C1` (single isomer, unassigned) [Example 290, (1r**,3r**)-3-[3-(6-{[(3S)-3-{[(4R*)-4-({1-[2-(2,6-dioxopiperidin-3-yl)-4-fluoro-1-oxo-2,3-dihydro-1H-isoindol-5-yl]piperidin-4-yl}oxy)-2,2-dimethylpiperidin-1-yl]methyl}piperidin-1-yl]methyl}-1-oxo-4-(trifluoromethyl)-2,3-dihydro-1H-isoindol-2-yl)phenyl]-3-[(4-methyl-4H-1,2,4-triazol-3-yl)methyl]cyclobutane-1-carbonitrile] was tested, and the DC50 was over 500 nM.

With `Cn1cnnc1CC1(c2cccc(N3Cc4c(cc(CN5CCC[C@H](CN6CC[C@@H](OC7CCN(c8ccc9c(c8F)CN(C8CCC(=O)NC8=O)C9=O)CC7)CC6(C)C)C5)cc4C(F)(F)F)C3=O)c2)CC(C#N)C1` (single isomer, unassigned) [Example 291, (1r**,3r**)-3-[3-(6-{[(3S)-3-{[(4R*)-4-({1-[2-(2,6-dioxopiperidin-3-yl)-4-fluoro-1-oxo-2,3-dihydro-1H-isoindol-5-yl]piperidin-4-yl}oxy)-2,2-dimethylpiperidin-1-yl]methyl}piperidin-1-yl]methyl}-1-oxo-4-(trifluoromethyl)-2,3-dihydro-1H-isoindol-2-yl)phenyl]-3-[(4-methyl-4H-1,2,4-triazol-3-yl)methyl]cyclobutane-1-carbonitrile] the DC50 was over 500 nM.

In the case of `C[C@@H]1c2nc(N3CCC(O[C@H]4CC[C@H](CN5CCN(Cc6cc7c(c(C(F)(F)F)c6)CN(c6cccc(C8(Cc9nncn9C)CC(C#N)C8)c6)C7=O)C6(CC6)C5)CC4)CC3)ccc2C(=O)N1C1CCC(=O)NC1=O` (single isomer, unassigned) [Example 305, (1r***,3r***)-3-[(4-methyl-4H-1,2,4-triazol-3-yl)methyl]-3-(3-{1-oxo-6-[(7-{[(1r**,4r**)-4-({1-[(7R*)-6-(2,6-dioxopiperidin-3-yl)-7-methyl-5-oxo-5H,6H,7H-pyrrolo[3,4-b]pyridin-2-yl]piperidin-4-yl}oxy)cyclohexyl]methyl}-4,7-diazaspiro[2.5]octan-4-yl)methyl]-4-(trifluoromethyl)-2,3-dihydro-1H-isoindol-2-yl}phenyl)cyclobutane-1-carbonitrile], the DC50 was over 500 nM.

`C[C@@H]1c2nc(N3CCC(O[C@H]4CC[C@H](CN5CCN(Cc6cc7c(c(C(F)(F)F)c6)CN(c6cccc(C8(Cc9nncn9C)CC(C#N)C8)c6)C7=O)C(C)(C)C5)CC4)CC3)ccc2C(=O)N1C1CCC(=O)NC1=O` (single isomer, unassigned) [Example 308, (1r***,3r***)-3-(3-{6-[(2,2-dimethyl-4-{[(1r**,4r**)-4-({1-[(7R*)-6-(2,6-dioxopiperidin-3-yl)-7-methyl-5-oxo-5H,6H,7H-pyrrolo[3,4-b]pyridin-2-yl]piperidin-4-yl}oxy)cyclohexyl]methyl}piperazin-1-yl)methyl]-1-oxo-4-(trifluoromethyl)-2,3-dihydro-1H-isoindol-2-yl}phenyl)-3-[(4-methyl-4H-1,2,4-triazol-3-yl)methyl]cyclobutane-1-carbonitrile] was tested, and the DC50 was over 500 nM.

`C[C@@H]1c2nc(N3CCC(O[C@H]4CC[C@H](CN5CCN(Cc6cc7c(c(C(F)(F)F)c6)CN(c6cccc(C8(Cc9nncn9C)CC(C#N)C8)c6)C7=O)C(C)(C)C5)CC4)CC3)ccc2C(=O)N1C1CCC(=O)NC1=O` (single isomer, unassigned) [Example 309, (1r***,3r***)-3-(3-{6-[(2,2-dimethyl-4-{[(1r**,4r**)-4-({1-[(7R*)-6-(2,6-dioxopiperidin-3-yl)-7-methyl-5-oxo-5H,6H,7H-pyrrolo[3,4-b]pyridin-2-yl]piperidin-4-yl}oxy)cyclohexyl]methyl}piperazin-1-yl)methyl]-1-oxo-4-(trifluoromethyl)-2,3-dihydro-1H-isoindol-2-yl}phenyl)-3-[(4-methyl-4H-1,2,4-triazol-3-yl)methyl]cyclobutane-1-carbonitrile] gave a DC50 of over 500 nM.

`C[C@@H]1c2nc(N3CCC(O[C@H]4CC[C@H](CN5CCN(Cc6cc7c(c(C(F)(F)F)c6)CN(c6cccc(C8(Cc9nncn9C)CC(C#N)C8)c6)C7=O)CC5(C)C)CC4)CC3)ccc2C(=O)N1C1CCC(=O)NC1=O` (single isomer, unassigned) [Example 313, (1r***,3r***)-3-(3-{6-[(3,3-dimethyl-4-{[(1r**,4r**)-4-({1-[(7R*)-6-(2,6-dioxopiperidin-3-yl)-7-methyl-5-oxo-5H,6H,7H-pyrrolo[3,4-b]pyridin-2-yl]piperidin-4-yl}oxy)cyclohexyl]methyl}piperazin-1-yl)methyl]-1-oxo-4-(trifluoromethyl)-2,3-dihydro-1H-isoindol-2-yl}phenyl)-3-[(4-methyl-4H-1,2,4-triazol-3-yl)methyl]cyclobutane-1-carbonitrile] gave a DC50 of over 500 nM.

With `Cc1cc(N2CCC(CN3CCC4(CC3)CN(c3cc5c(c(C(F)(F)F)c3)CN(c3cccc(C6(Cc7nncn7C)COC6)c3)C5=O)C4)CC2)c(F)c2c1C(=O)N(C1CCC(=O)NC1=O)C2` (centres unmarked) [Example 12, 3-{4-fluoro-7-methyl-5-[4-({2-[2-(3-{3-[(4-methyl-4H-1,2,4-triazol-3-yl)methyl]oxetan-3-yl}phenyl)-3-oxo-7-(trifluoromethyl)-2,3-dihydro-1H-isoindol-5-yl]-2,7-diazaspiro [3.5]nonan-7-yl}methyl)piperidin-1-yl]-1-oxo-2,3-dihydro-1H-isoindol-2-yl}piperidine-2,6-dione] the DC50 was under 5 nM and the Dmax was over 70%.

— patent US20260184710A1, “CASITAS B-LINEAGE LYMPHOMA PROTOONCOGENE B (CBL-B) DEGRADING COMPOUNDS AND ASSOCIATED METHODS OF USE” (Arvinas Operations, Inc., priority 2022, published 2026)
